Test results as given in patent publication US20210269453A1, “Bryoid Compositions, Methods of Making and Use Thereof” (Aphios Corporation, priority 2018, published 2021).

Tested on: alpha-secretase
Assay: Effect of purified Bryoids on alpha-secretase activity in SHSY-5Y neuroblastoma cells (FIG. 10)
Type: cell-based
Details: 10-^9M, FIG. 10, relative to Bryostatin-1
Source text: FIG. 10 depicts the effect of Bryostatin-1 and different Bryoids at 10-^9M on alpha-secretase activity in SHSY-5Y neuroblastoma cells;
Purified Bryoids at 10-^9M are shown to increase alpha-secretase activity in SHSY-5Y neuroblastoma cells in FIG. 10.

Row | Compound | alpha-secretase activity
1 | CCC/C=C/C=C/C(=O)O[C@H]1[C@H]2C=C3C[C@H]([C@@H](C)O)OC(=O)C[C@H](O)C[C@@H]4C[C@H](OC(C)=O)C(C)(C)[C@](O)(C[C@@H]5C/C(=C\C(=O)OC)C[C@H](/C=C/C(C)(C)[C@]1(OC(=O)C2)O3)O5)O4 [Bryoid B3, Bryostatin-3] | improve the production of alpha-secretase over Bryostatin-1
2 | bryostatin-3 26-ketone [Bryoid B16] | improve the production of alpha-secretase over Bryostatin-1
